Entries after “also recorded” stand apart in the source; their conditions may differ.
How the values were obtained:
[1] = molecular target: T1, uPA (Homo sapiens, UniProt P00749); assay: Plasminogen activator activity, chromogenic assay without fibrin, activation by uPA; type: biochemical; details: plasminogen 500 nM, uPA 20 nM; mutants 100 nM or TA 200 nM alone; FIG. 2D
T1 construct: Single-chain urokinase (uPA) was purified, characterized as previously reported; made in house
Method: Plasminogen Activator Activity
Plasminogen activator activity was determined by adding tPA (50 nM) or uPA (20 nM), to a reaction mixture containing Glu-plasminogen and the plasmin chromogenic substrate Spectrazyme PL (100 μM) in phosphate-buffered saline (PBS) at 37° C., and the light absorbance at 405 nm was measured continuously over time. The initial velocities of plasmin generation at the different conditions were calculated from the change in the A405 nm over time. The initial velocity of the reaction at each plasminogen concentration was obtained by calculating the change in the rate of A405 over different time intervals and the results were expressed as the change in optical density (ΔOD) per minute, which represents the slope of the initial velocity of plasminogen activation (Higazi A et al., J Biol Chem. (1995), 270(29):17375-80).

[2] = test system: patients undergoing elective surgery; details: 53 studies, 3836 participants (Ker K. et al. 2012); cited from earlier work
[3] = test system: trauma patients; details: early administration of a short course (Ker K. ibid.); cited from earlier work
[4] = test system: mice treated with Coumadin and subjected to CHI; assay: Closed head injury (CHI) in mice anticoagulated with warfarin (Coumadin); type: in vivo, mouse; details: for extent of ICH post CHI after anticoagulation: warfarin prior to CHI
Source text: (§1) Closed Head Injury (CHI) Model
(§2) Head trauma was induced by using a modified weight-drop device, as previously described (Chen Y. et al. (1996) J. Neurotrauma, 13:557-568). Briefly, after induction of ether anesthesia, a midline longitudinal incision was made, the skin was retracted and the skull was exposed. The left anterior frontal area was identified and a Teflon tipped cone (2-mm diameter) was placed 1 mm lateral to the midline, in the midcoronal plane. The head was held in place manually and a 75-g weight was dropped on the cone from a height of 18 cm, resulting in focal injury to the left hemisphere. After trauma, the mice received supporting oxygenation with 95% 02 for no longer than 2 min and were then returned to their cages. In sham controls only anesthesia and skin incision were carried out.

[5] = test system: WT mice subjected to CHI; assay: Closed head injury (CHI) model of TBI in WT mice; type: in vivo, mouse; details: WT mice, IV immediately after or 2 hrs after CHI, Hgb at 2 or 8 hrs, MRI at 24 hrs
Method: Eight to twelve weeks old C57 mice obtained from Harlan, Israel. Mice were administered standard laboratory chow and water ad libitum, and kept in controlled temperature and light conditions. Animal experiments were carried out according to the guidelines of the Hebrew University-Institutional Committee for Care and Use of Laboratory Animals, and with the committee's approval.
as §1, §2

[6] = test system: tPA-/- and uPA-/- mice subjected to CHI; assay: Closed head injury (CHI) model in tPA-/- and uPA-/- mice; type: in vivo, mouse; details: 5 mg/kg each
Source text: as §1, §2

In the case of `NC[C@H]1CC[C@H](C(=O)O)CC1` [TA, tranexamic acid, reference compound], the “plasminogen activation by uPA in the absence of fibrin (change in OD per minute)” value [1] is given as “dramatically stimulated; also recorded: mimics the effect of fibrin only in the case of uPA”, the “need for blood transfusion” value [2] is given as “reduced the need for blood transfusion by a third” and the “death, vascular occlusive events and frequency of blood transfusions” value [3] is given as “reduced death, vascular occlusive events and the frequency of blood transfusions”.
For `CC(=O)CC(c1ccccc1)c1c(O)c2ccccc2oc1=O` (stereo not drawn) [warfarin], the “extent of ICH post CHI after anticoagulation” value ([4]; WT mice) was “increased the extent of ICH”, the “mean INR at the time of trauma” value ([4]; mice anticoagulated with warfarin prior to CHI) was 2.5 and the “extent of ICH post CHI after anticoagulation” value ([4]; tPA-/- or uPA-/- mice) was “had no such effect”.
In the case of “WT-tPA: wild type tissue plasminogen activator; recombinant tPA from Genentech”, the “intracerebral hemorrhage (MRI, extravasation of Hgb) post CHI” value [5] is reported as “increased the extent of intracerebral hemorrhage”, the “intracerebral hemorrhage (MRI, extravasation of Hgb) post CHI” value ([5]; listed as WT tPA) is reported as “exacerbated” and the “injury phenotype (ICH) of knock-out mice after exogenous plasminogen activator” value [6] is reported as “rescued”.

From US10188706B2, “Plasminogen activator mutants as anti-fibrinolytic agents” (HADASIT MEDICAL RESEARCH SERVICES & DEVELOPMENT LIMITED, priority 2012, dated 2019)
